Experimental data published in ChEMBL document CHEMBL4190255, “Novel celastrol derivatives with improved selectivity and enhanced antitumour activity: Design, synthesis and biological evaluation” (Eur J Med Chem, 2017).

How the values were obtained:
A549 = assay: Antiproliferative activity against human A549 cells after 72 hrs by MTT assay; type: functional, cell-based; conditions: A549, 72 h
MIA PaCa-2 = assay: Antiproliferative activity against human MIAPaCa2 cells after 72 hrs by MTT assay; type: functional, cell-based; conditions: MIA PaCa-2, 72 h

IC50 (A549) | IC50 (MIA PaCa-2) | Compound
> 15000 nM | > 5000 nM | CC(=O)Oc1cc2c(c(C)c1OC(C)=O)C(=O)C=C1[C@@]2(C)CC[C@@]2(C)[C@@H]3C[C@](C)(C(=O)O)CC[C@]3(C)CC[C@]12C
2890 nM | 1410 nM | CC(=O)Oc1cc2c(c(C)c1OC(C)=O)CC=C1[C@@]2(C)CC[C@@]2(C)[C@@H]3C[C@](C)(N=C=O)CC[C@]3(C)CC[C@]12C
4340 nM | 560 nM | CC1=C(O)C(=O)C=C2C1=CC=C1[C@@]2(C)CC[C@@]2(C)[C@@H]3C[C@](C)(NC(=O)NCc4ccc(F)cc4)CC[C@]3(C)CC[C@]12C
3500 nM | 850 nM | CC1=C(O)C(=O)C=C2C1=CC=C1[C@@]2(C)CC[C@@]2(C)[C@@H]3C[C@](C)(NC(=O)NO)CC[C@]3(C)CC[C@]12C
> 15000 nM | > 5000 nM | CC(=O)Oc1cc2c(c(C)c1OC(C)=O)C(=O)C=C1[C@@]2(C)CC[C@@]2(C)[C@@H]3C[C@](C)(N=C=O)CC[C@]3(C)CC[C@]12C
2990 nM | 560 nM | CC1=C(O)C(=O)C=C2C1=CC=C1[C@@]2(C)CC[C@@]2(C)[C@@H]3C[C@](C)(NC(=O)Nc4ccccc4N)CC[C@]3(C)CC[C@]12C
1410 nM | 550 nM | CCNC(=O)N[C@]1(C)CC[C@]2(C)CC[C@]3(C)C4=CC=C5C(=CC(=O)C(O)=C5C)[C@]4(C)CC[C@@]3(C)[C@@H]2C1
1260 nM | 660 nM | CCCNC(=O)N[C@]1(C)CC[C@]2(C)CC[C@]3(C)C4=CC=C5C(=CC(=O)C(O)=C5C)[C@]4(C)CC[C@@]3(C)[C@@H]2C1
2450 nM | 450 nM | CC1=C(O)C(=O)C=C2C1=CC=C1[C@@]2(C)CC[C@@]2(C)[C@@H]3C[C@](C)(NC(=O)NCc4ccc(C)cc4)CC[C@]3(C)CC[C@]12C

Compound | IC50 (A549) | IC50 (MIA PaCa-2)
CNC(=O)N[C@]1(C)CC[C@]2(C)CC[C@]3(C)C4=CC(=O)c5c(cc(O)c(O)c5C)[C@]4(C)CC[C@@]3(C)[C@@H]2C1 | > 15000 nM | > 5000 nM
